Experimental data from patent US9744160B2, “Pharmaceutical compositions comprising sulbactam and beta-lactamase inhibitor” (WOCKHARDT LIMITED, priority 2011, dated 2017).

System: A. baumanii 13305
Assay: MIC by agar dilution (CLSI)
Assay type: cell-based
Description: In a typical study, overnight grown bacterial cultures were diluted appropriately and inoculated on the agar media containing doubling dilutions of composition or pharmaceutically active ingredients disclosed herein. Observation for growth or no growth was performed after 16-20 hours of incubation at 35±2° C. in ambient air. The overall procedure was performed as per Clinical and Laboratory Standards Institute (CLSI) recommendations (Clinical and Laboratory Standards Institute (CLSI), performance Standards for Antimicrobial Susceptibility Testing, 20th Informational Supplement, M 100-S20, Volume 30, No. 1, 2010).

With `CO/N=C(\C(=O)N[C@@H]1C(=O)N2C(C(=O)[O-])=C(C[N+]3(C)CCCC3)CS[C@H]12)c1csc(N)n1` [Cefepime] the “MIC of cefepime in presence of Sulbactam (4 to 8 mcg/ml)” value was 4 µg/mL.
